Broadly, the EC50 is the concentration needed to bring the measured effect to its halfway point. For orientation: IC50 means the midpoint of a concentration-inhibition curve.

Test [1] relates to HEK293/CRE-Luc cells. Put plainly: Luciferase reporter assay, HEK293/CRE-Luc cells without GLP1R (Example 17). The test is classed as cell-based, human. The conditions noted are these: HEK293/CRE-Luc cells without hGLP1R, payloads and linker-payloads. The gist of the method: (§1)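 HEK293 cells carrying a CRE-driven firefly luciferase reporter were exposed to 3-fold serial dilutions of payloads or linker-payloads (12 points, 0.2% DMSO final) for 4–6 h, then luminescence was read. EC50 came from a four-parameter logistic fit; S/N is top RLU over untreated wells, and relative potency and S/N are referenced to M2361.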

The target of test [2] is T1, human GLP1R (Homo sapiens, UniProt P43220). Put plainly: Human GLP1R cAMP accumulation assay. The test is classed as cell-based. Also noted: HEK293 cells over-expressing full length human GLP-1R were utilized; expressed in transfected cells; host or cells: HEK293 (HEK293/hGLP1R). The conditions noted are these: HEK293/hGLP1R cells; Table 4; read-out: cAMP EC50. The gist of the method: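 cAMP accumulation measured after 30 min at 23° C, with 500 μM IBMX in HEPES-buffered HBSS plus 0.1% BSA, in HEK293 cells expressing full-length hGLP-1R. Levels read by D2-cAMP/antibody immunoassay via standard curve, scaled between low and high controls. EC50 fitted four-parameter over a 10-point curve.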
T1 sequence (P43220 24-463): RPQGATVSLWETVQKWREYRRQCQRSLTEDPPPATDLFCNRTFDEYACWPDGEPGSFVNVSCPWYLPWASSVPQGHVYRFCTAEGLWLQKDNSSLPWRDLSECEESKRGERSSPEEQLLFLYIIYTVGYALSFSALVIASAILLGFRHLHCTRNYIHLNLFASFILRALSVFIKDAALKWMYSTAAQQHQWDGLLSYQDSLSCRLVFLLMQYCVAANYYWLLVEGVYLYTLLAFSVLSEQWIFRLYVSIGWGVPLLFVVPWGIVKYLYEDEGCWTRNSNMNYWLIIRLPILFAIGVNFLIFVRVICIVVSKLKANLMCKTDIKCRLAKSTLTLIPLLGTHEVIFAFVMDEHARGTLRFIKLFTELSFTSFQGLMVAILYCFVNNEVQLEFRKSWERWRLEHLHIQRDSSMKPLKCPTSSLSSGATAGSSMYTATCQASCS

Test [3] addresses hERG potassium channels (Homo sapiens, UniProt Q12809). Kind of test: cell-based. The protocol:
For the assay, CHO cells stably expressing hERG potassium channels were plated and cultured for at least 2 days in a humidified and air-controlled (5% CO2) incubator at 37° C. prior to use in electrophysiological experiments. Cells were then harvested using TrypLE and resuspended in physiological solution (10 mM HEPES, 80 mM NaCl, 4 mM KCl, 2 mM CaCl2, 1 mM MgCl2, 5 mM Glucose, 60 mM NM DG, pH 7.4). Test compounds were dissolved in water to obtain stock solutions for different test concentrations. […] One 40 μL addition of the vehicle was applied, followed by a 300s baseline recording period. […] Recordings were required to pass quality control over the duration of the recording or the well was abandoned, and the compound was retested, all automatically set by PatchControl. […] A minimum of 2 replicates per concentration were obtained. […] Curve-fitting and IC50 value calculations were performed by GraphPad Prism 5.0.

Test [4] has as its target T1, human GLP1R. Kind of test: Luciferase reporter assay, HEK293/CRE-Luc/hGLP1R (Example 17). The test is classed as cell-based. Also noted: engineered to express full-length human GLP1R, cynomolgus GLP1R; expressed in transfected cells; host or cells: HEK293/CRE-Luc. The conditions noted are these: HEK293/CRE-Luc/hGLP1R. In a few lines:
as §1

Where [5] appears, read: relative to M2361 of the same experiment.

Sequence of hERG potassium channels (Q12809 whole entry): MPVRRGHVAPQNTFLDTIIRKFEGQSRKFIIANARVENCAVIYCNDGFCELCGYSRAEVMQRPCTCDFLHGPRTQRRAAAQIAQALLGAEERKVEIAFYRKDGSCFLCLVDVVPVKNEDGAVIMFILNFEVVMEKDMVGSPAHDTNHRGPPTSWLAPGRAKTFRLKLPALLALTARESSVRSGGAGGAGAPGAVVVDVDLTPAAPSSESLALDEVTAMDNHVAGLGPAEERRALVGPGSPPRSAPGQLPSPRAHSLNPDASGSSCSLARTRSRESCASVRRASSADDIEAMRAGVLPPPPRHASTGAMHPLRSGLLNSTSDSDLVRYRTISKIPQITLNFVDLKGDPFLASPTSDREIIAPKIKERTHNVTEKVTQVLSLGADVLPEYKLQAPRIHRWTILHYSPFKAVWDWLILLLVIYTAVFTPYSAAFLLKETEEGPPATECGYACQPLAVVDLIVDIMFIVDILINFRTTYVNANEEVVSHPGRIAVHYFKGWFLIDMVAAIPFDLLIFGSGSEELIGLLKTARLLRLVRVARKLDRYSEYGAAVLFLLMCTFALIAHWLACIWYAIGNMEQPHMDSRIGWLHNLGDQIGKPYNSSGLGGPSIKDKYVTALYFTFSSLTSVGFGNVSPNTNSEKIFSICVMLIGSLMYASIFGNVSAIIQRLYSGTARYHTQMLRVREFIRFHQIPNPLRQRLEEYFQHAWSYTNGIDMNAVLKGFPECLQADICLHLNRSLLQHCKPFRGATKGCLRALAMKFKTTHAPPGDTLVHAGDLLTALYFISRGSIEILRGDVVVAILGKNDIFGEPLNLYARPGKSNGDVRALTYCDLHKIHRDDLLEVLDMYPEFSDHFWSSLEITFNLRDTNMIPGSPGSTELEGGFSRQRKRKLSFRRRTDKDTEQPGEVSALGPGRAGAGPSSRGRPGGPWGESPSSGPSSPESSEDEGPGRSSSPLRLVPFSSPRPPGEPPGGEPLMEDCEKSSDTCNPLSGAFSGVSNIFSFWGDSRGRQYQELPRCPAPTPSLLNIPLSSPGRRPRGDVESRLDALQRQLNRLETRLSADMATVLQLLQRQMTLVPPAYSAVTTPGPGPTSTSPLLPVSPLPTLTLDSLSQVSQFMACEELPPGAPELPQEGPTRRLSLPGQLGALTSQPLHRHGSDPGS

Turning to `CCc1cc(OCCCCn2cc(COCCOCCOCCOCCNC(=O)COC3C#CCCCCC3)nn2)ccc1-c1ccc(C[C@H](NC(=O)[C@H](CC(=O)O)NC(=O)[C@H](CO)NC(=O)[C@@H](NC(=O)[C@](C)(Cc2ccccc2F)NC(=O)[C@@H](NC(=O)CNC(=O)[C@H](Cc2nn[nH]n2)NC(=O)C(C)(C)C(=O)NCCc2cnc[nH]2)[C@@H](C)O)[C@@H](C)O)C(=O)N[C@@H](CCCc2cc(C)cc(C)c2)C(N)=O)cc1` (some centres unmarked) [LP10, COT-PEG4-triazole-P8], the figures for the S/N in test [1] and in test [4] (highest RLU / RLU of untreated wells) were 1.1 and 51.7, respectively. The EC50 in test [1] (read-out: EC50) is > 200 nM; in test [2] it was 0.982 nM; in test [4] (payloads and linker-payloads, experiments A-E, M2361 repeated in each, read-out: EC50), 0.0391 nM. Moreover, in test [3], the IC50 is > 100000 nM. Besides, the “Relative Potency (% M2361 EC50)” value in test [4] (setting [5]) turned out to be 13.6%. In addition, in test [4] (setting [5]), the “Relative Signal:Noise (% M2361)” value is 78.7%.
